# Experimental data reported in US20220062436A1, “DRUG-PROTEIN CONJUGATES” (priority 2012, published 2022).
# pIC50: −log10 of the molar value. Square brackets hold non-standard residues; d marks the D form. Peptide text beside a SMILES is read from it. * marks the point of attachment. Dolaproine = CO[C@@H]([C@@H]1CCCN1)[C@@H](C)C(=O)O; Dil = CC[C@H](C)[C@H](NC)[C@@H](CC(=O)O)OC; X1 = C[C@@H](N*)[C@@H](O)c1ccccc1; NMeV = CN[C@H](C(=O)O)C(C)C
# Key:
# [1] = system: HER2-positive BT-474 cells; assay: Cell viability assay (CellTiter Glo luminescence), inhibition of cell growth; format: cell-based; conditions: 96 h incubation
# Method: (§1) The in vitro efficacy of the mAb-reagent 1 conjugates were determined by measuring the inhibitory effect on cell growth of HER-2 receptor over-expressing cancer cell lines.
# (§2) Loss of tumour cell viability following treatment with cytotoxic drugs or ADCs in vitro can be measured by growing cell lines in the presence of increasing concentrations of drugs or ADCs and quantifying the loss of proliferation or metabolic activity using CellTiter Glo® Luminescence reagent (Promega Corp. Technical Bulletin TB288; Lewis Phillips G. D, Cancer Res 2008; 68:9280-9290). The protocol describes cell seeding, drug treatment and determination of the cell viability in reference to untreated cells based on ATP synthesis, which is directly related to the number of cells present in the well.
# (§3) HER2-positive SK-BR-3 and BT-474 cells were trypsinised with 3 mL Trypsin EDTA for 5-15 min. Trypsinisation was stopped by adding 10 mL complete medium, and cells were transferred to a 50 mL Falcon tube. Cells were counted using a Neubauer haemocytometer and adjusted to a cell density of 1×10^5/mL for BT-474 and 5×10^4/mL for SK-BR-3 respectively. Cells were seeded (100 μL/well) into poly-D-lysine coated opaque-walled 96-well plates and incubated for 24 h at 37° C. and 5% CO2. Tumour cell lines SK-BR-3 (ATCC-HTB-30) and BT-474 (ATCC-HTB-20) were purchased from the American Type Culture Collection. SK-BR-3 cells were grown in McCoy's 5A medium (Life Technologies®), 10% fetal bovine serum, 100 u/mL Penicillin and 100 μg/mL Streptomycin. BT-474 cells were grown in DMEM/F-12 medium (Life Technologies®), 10% fetal bovine serum, 100 u/mL Penicillin and 100 μg/mL Streptomycin. […]
# (§4) The cell viability assay was carried out using the Cell-Titer Glo® Luminescence reagent, as described by the manufacturer's instructions, (Promega Corp. Technical Bulletin TB288; Lewis Phillips G. D, Cancer Res 2008; 68:9280-9290). […] Luminescence was recorded using a plate reader (e.g. MD Spectramax M3 plate reader), and data subsequently analysed using a four parameter non-linear regression model.
# (§5) The results are shown in FIG. 6, which illustrates cell viability responses to treatment with either antibody-reagent 1 conjugate within SKBR-3 or BT-474 cells. Viability is expressed as % of untreated cells. […]
# (§6) The in vitro efficacy of the reagent 6 and reagent 9 antibody conjugates prepared in Example 12 were determined by measuring the inhibitory effect on cell growth of HER-2 receptor over-expressing cancer cell lines by the method of Example 9.
# (§7) The results are shown in FIG. 7, which illustrates cell viability responses to treatment with either reagent 6 conjugate or reagent 9 conjugate within SKBR-3 or BT-474 cells. Viability is expressed as % of untreated cells. […]
# [2] = system: HER2-positive SK-BR-3 cells; assay: as above; format: cell-based; conditions: 96 h incubation
# Method: as §1, §2, §3, §4, §5, §6, §7
smiles,measurement,setting,value
"CC[C@H](C)[C@@H]([C@@H](CC(=O)N1CCC[C@H]1[C@H](OC)[C@@H](C)C(=O)N[C@H](C)[C@@H](O)c1ccccc1)OC)N(C)C(=O)[C@@H](NC(=O)[C@@H](NC)C(C)C)C(C)C [MMAE, monomethyl auristatin E] (H-[NMeV]V[Dil][Dolaproine]-X1)",pIC50,"[1]; Example 9, Table 5",9.12
same,pIC50,"[1]; Example 13, Table 7",9.07
same,pIC50,"[2]; Example 9, Table 5",9.70
same,pIC50,"[2]; Example 13, Table 7",9.57
